As a reminder, the Kd is the concentration at which binding is half-saturated.

Like-named read-outs stand apart in the source and are kept apart here.

A short description of assay [1]: Plasma free fatty acids and triglycerides in the monkey (dyslipidemias with elevated serum triglycerides). Particulars: Rhesus monkey. It counts as in vivo. From the text: Several studies have shown a positive correlation between serum triglyceride levels and the risk for coronary heart disease (CHD) (Grundy, in Cholesterol and Atherosclerosis: Diagnosis and Treatment, Lippincott, Philadelphia (1990)). The value of reducing elevated triglyceride levels as an approach to reducing the risk of CHD emerged from the Helsinki Heart Study where, following treatment with gemfibrozil, the greatest reduction in serious coronary events occured in Type IIB hyperlipidemic patients in whom both LDL-cholesterol and total serum triglycerides were elevated.

The test system of assay [2] is A1 receptor. Particulars: ratio of A2 KD to A1 KD, pig striatal membranes.
Experimental: (§1) Pig striatal membranes were prepared as previously described by H. Bruns et al. in Molecular Pharmacology 29 (1986) pages 331-344. ^3H-NECA, a non-selective adenosine receptor agonist was used to label both A1 and A2 receptors. IC50 values were derived from the displacement curves by weighted non-linear least-square curve fitting to the Langmuir equation and pKD values calculated.
The target of assay [3] is T1, A1 receptor (Sus scrofa, UniProt I3LEN5).
T1 sequence (I3LEN5 1-326): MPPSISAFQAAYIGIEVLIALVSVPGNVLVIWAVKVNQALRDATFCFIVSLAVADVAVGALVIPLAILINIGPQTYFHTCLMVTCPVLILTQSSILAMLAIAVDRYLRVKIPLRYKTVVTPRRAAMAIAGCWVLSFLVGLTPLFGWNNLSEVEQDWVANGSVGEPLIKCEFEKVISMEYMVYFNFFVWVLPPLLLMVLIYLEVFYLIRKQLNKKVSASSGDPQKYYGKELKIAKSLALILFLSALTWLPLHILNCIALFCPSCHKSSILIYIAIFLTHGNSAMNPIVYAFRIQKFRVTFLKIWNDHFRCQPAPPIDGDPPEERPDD
As to the kind of experiment: biochemical.
Experimental: as §1

The next assay addresses T2, A2 receptor (Sus scrofa, UniProt K9IW67).
T2 construct: Pig striatal membranes were prepared as previously described; from tissue; host or cells: pig striatum (membranes)
As to the kind of experiment: Affinity for adenosine receptors, displacement of 3H-NECA binding in striatal membranes (A2). Also on record: species or system Pig.

T2 sequence (K9IW67 1-409): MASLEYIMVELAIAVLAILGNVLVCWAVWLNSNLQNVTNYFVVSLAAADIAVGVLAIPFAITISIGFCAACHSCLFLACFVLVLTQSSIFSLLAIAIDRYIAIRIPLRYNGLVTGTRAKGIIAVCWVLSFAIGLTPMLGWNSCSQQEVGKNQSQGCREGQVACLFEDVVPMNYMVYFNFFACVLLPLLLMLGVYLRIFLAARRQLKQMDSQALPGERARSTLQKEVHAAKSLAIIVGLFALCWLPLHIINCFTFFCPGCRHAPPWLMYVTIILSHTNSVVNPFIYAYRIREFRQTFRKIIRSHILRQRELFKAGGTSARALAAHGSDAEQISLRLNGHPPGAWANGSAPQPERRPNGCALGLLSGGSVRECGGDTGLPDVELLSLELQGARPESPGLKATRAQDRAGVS
Experimental for A2 receptor: as §1

For the compound `CO[C@@H]1[C@H](O)[C@@H](CO)O[C@H]1n1cnc2c(NC3CCCCC3)ncnc21` [Compound No. 7 1.5 H2O, 6-cyclohexyl-2'-O-methyl-adenosine 1.5 hydrate], in assay [1], the “plasma free fatty acids” value was “substantial and long-lasting falls”; the plasma triglycerides result is “substantial and long-lasting falls”. Also, the “A1:A2 selectivity” value in the assay with A1 receptor [2] is 1090. On A1 receptor [3], the affinity, expressed as Kd, was 0.023 ± 0.002 µM. For the same compound, binding at A2 receptor was put at a Kd of 24500 ± 5160 nM.
For `Nc1nc(Nc2ccccc2)nc2c1ncn2[C@@H]1O[C@H](CO)[C@@H](O)[C@H]1O` [CV 1808, 2-Phenylaminoadenosine, reference compound], the “A1:A2 selectivity” value in the assay on A1 receptor [2] worked out at 0.1. Further, the Kd is 2.46 ± 0.757 µM at A1 receptor [3] and 269 ± 70 nM on A2 receptor (Pig striatal membranes, 3H-NECA label, mean ± spread, read-out: A2 (KD;nM)).
`CCNC(=O)[C@H]1O[C@@H](n2cnc3c(N)nc(NCCc4ccc(CCC(=O)O)cc4)nc32)[C@H](O)[C@@H]1O` [CGS 21680, 2-[p-(2-Carboxyethyl)phenethylamino]-5'-N-ethyl carboxamido-adenosine] came in with a dissociation constant Kd at A1 receptor [3] of 4.36 ± 1.08 µM.

The record behind these values is patent EP0490818B1, “6-CYCLOHEXYL-2'-0-METHYL-ADENOSINE HYDRATE AND USES THEREOF” (Novartis AG, priority 1990, dated 1992).
